We go through seven molecules from paper PMC10779950, “Binding Free Energy Calculation Based on the Fragment Molecular Orbital Method and Its Application in Designing Novel SHP-2 Allosteric Inhibitors” (International Journal of Molecular Sciences, 2024).

Test [1] deals with SYK. Details: method as in Schrödinger FEP+ benchmark. The settings on record: FEP+ predicted binding free energy, ref Schrödinger FEP+ benchmark; cited from earlier work.
The target in the next test is T1, SHP2^WT (1–593) (Homo sapiens, UniProt Q06124).
T1 construct: made in house; host or cells: E. coli BL21 Star (DE3), pET30 vector
T1 sequence (Q06124 1-593): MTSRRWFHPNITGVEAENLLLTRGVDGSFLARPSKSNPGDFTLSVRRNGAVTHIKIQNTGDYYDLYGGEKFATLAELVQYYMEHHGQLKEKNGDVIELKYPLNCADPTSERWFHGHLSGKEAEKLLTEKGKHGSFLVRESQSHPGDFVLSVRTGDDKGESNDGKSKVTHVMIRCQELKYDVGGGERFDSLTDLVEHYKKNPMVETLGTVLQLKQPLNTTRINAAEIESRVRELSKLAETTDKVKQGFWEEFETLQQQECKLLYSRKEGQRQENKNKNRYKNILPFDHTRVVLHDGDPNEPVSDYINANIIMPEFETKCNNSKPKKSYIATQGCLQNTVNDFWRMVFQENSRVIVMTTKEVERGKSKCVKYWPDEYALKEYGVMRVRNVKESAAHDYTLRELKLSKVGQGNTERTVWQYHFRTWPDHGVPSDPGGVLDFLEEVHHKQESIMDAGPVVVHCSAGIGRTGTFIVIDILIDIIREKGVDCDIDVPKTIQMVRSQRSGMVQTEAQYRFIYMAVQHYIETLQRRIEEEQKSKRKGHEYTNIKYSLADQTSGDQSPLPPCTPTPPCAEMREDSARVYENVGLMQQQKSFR
The test can be described thus: SHP-2 prompt fluorescence phosphatase assay (DiFMUP), SHP2^WT. It counts as biochemical. The settings on record: for IC50: SHP2^WT, DiFMUP substrate, averages of three independent experiments, read-out: SHP-2 IC50; for ΔGexp: converted from IC50 with ΔGexp ≈ kBTlog IC50; for inhibitory activity against SHP-2 (in words): Figure S4, DIFMUP substrate, mean ± SD (n = 3). How it is done: (§1) Briefly, the constructs were transformed into BL21 Star^TM (DE3) cells and cultured at 37 °C for 3~4 h. Subsequently, the cells with high expression of SHP2 protein were harvested after being induced by IPTG and grown overnight at 18 °C. Cell pellets were resuspended in lysis buffer (25 mM imidazole, 50 mM Tris−HCl, 500 mM NaCl, 2.5 mM MgCl2, 1 mM tris(2-carboxyethyl)phosphine (TCEP), 1 μg/mL DNase1, and complete EDTA-free protease inhibitor) and lysed using Low Temperature Ultrahigh Pressure Continuous Flow Cell Disrupter (JNBIO), followed by ultracentrifugation. The supernatant was collected. Then, the SHP2 was purified from the collected supernatant by using HisTrap HP chelation column, TEV protease, and HiTrap Q FastFlow column.
(§2) Then, the mixture was then incubated at 25 °C for 60 min. To initiate the reaction, the surrogate substrate DiFMUP (Invitrogen, cat. no. D6567, Shuzhou, China, 200 μM) was added and incubated at 25 °C for another 30 min. […] Fluorescence signal was detected using a microplate reader (Bio-Tek, Shanghai, China, Synergy2) at Ex/Em = 340/450 nm. Using control-based normalization, normalized IC50 regression curves were fitted to inhibitor dose response curves.

The test system of test [2] is c-Met. Details: method as in earlier work. The settings on record: Schrödinger FEP+ benchmark; cited from earlier work.
For test [3], the system named is c-Met. Also on record: method as in earlier work. The settings on record: FEP+ predicted ΔG from the benchmark; cited from earlier work.
The next test relates to THR-β. In words: Experimental THR-β activity of agonists taken from Hu et al. The class given is biochemical. The settings on record: Table S4, converted from the experimental value.
Test [4] relates to SYK. The settings on record: experimental binding free energy, ref Schrödinger FEP+ benchmark; cited from earlier work.
A further test concerns SHP-2. The settings on record: SHP-2 ligand set; experimental binding free energy; ref Schrödinger FEP+ benchmark; cited from earlier work.
The next test concerns HIF-2α. The settings on record: experimental binding free energy, ref Schrödinger FEP+ benchmark; cited from earlier work.
The target in a further test is T2, SHP2^PTP (237–529) (Homo sapiens, UniProt Q06124).
T2 construct: made in house; host or cells: E. coli BL21 Star (DE3), pET30 vector
T2 sequence (Q06124 237-529): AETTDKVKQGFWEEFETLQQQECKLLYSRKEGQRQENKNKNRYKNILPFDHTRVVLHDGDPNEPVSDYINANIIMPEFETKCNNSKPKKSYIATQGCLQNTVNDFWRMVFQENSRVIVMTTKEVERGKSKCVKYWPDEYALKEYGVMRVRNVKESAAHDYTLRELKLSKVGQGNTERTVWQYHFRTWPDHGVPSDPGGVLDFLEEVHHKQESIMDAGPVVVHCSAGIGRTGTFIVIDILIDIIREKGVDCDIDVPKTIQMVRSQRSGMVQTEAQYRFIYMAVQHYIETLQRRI
The test can be described thus: SHP-2 prompt fluorescence phosphatase assay (DiFMUP), SHP2^PTP. The class given is biochemical. The settings on record: catalytic PTP domain construct. The protocol: as §1, §2

Test [5] has as its system TNKS2. Also on record: method as in Schrödinger FEP+ benchmark. The settings on record: FEP+ predicted binding free energy, ref Schrödinger FEP+ benchmark; cited from earlier work.
Test [6] deals with TNKS2. The settings on record: experimental binding free energy, ref Schrödinger FEP+ benchmark; cited from earlier work.

Source text for THR-β: In the initial phase of our investigation, we conducted a retrospective evaluation of FMOScore’s performance concerning thyroid hormone receptor β (THR-β) agonists, using a set of 18 compounds taken from the work of Hu et al. [65]

For orientation: IC50 means the midpoint of a concentration-inhibition curve. Take `Nc1cc(NC2CCNCC2)cnc1-c1cccc(Cl)c1Cl` [Compound 4, 2-(2,3-dichlorophenyl)-N5-(piperidin-4-yl) pyridine-3,5-diamine]: the FEP was -9.49 kcal/mol in the test on SYK [1] and -7.41 kcal/mol with c-Met [3]. Further, on SHP2^WT (1–593), the 50% inhibitory concentration (IC50) worked out at 23.5 ± 2.86 µM. The ΔGexp on SHP2^WT (1–593) is -6.311 kcal/mol; in the test on THR-β, -5.453 kcal/mol. At SHP2^WT (1–593) (ratio of IC50), the “fold reduced inhibition on morphing the piperazine ring (relative to compound 1)” value is recorded as 15 fold. Also, the results for the “Exp. ΔG” value in the test on c-Met [2] and with SYK [4] were -8.9 kcal/mol and -11.36 kcal/mol, respectively.
In the case of `CC1(N)CCN(c2cnc(-c3ccnc(Cl)c3Cl)c(N)c2)CC1` [Compound 6, 5-(4-amino-4-methylpiperidin-1-yl)-2′,3′-dichloro-[2,4′-bipyridin]-3-amine], the figures for the FEP in the test on SYK [1] and in the test on c-Met [3] were -9.59 kcal/mol and -12.22 kcal/mol, respectively. Besides, the half-inhibitory concentration (IC50) at SHP2^WT (1–593) was determined as 10.7 ± 0.92 µM. Moreover, the ΔGexp on SHP2^WT (1–593) is -6.780 kcal/mol; in the test on THR-β, -10.257 kcal/mol. Besides, the “Exp. ΔG” value in the test with c-Met [2] is given as -12.28 kcal/mol; with SYK [4], -11.69 kcal/mol.
As for `Nc1cc(NCC2CCCNC2)cnc1-c1cccc(Cl)c1Cl` (stereo not shown) [Compound 2, 2-(2,3-dichlorophenyl)-N5-(piperidin-3-ylmethyl) pyridine-3,5-diamine], the results for the FEP with SYK [1] and in the test on c-Met [3] were -10.49 kcal/mol and -11.93 kcal/mol, respectively. The IC50 on SHP2^WT (1–593) worked out at 15.6 ± 1.49 µM. Also, the ΔGexp is -6.553 kcal/mol on SHP2^WT (1–593) and -6.110 kcal/mol with THR-β. Moreover, the “fold reduced inhibition on morphing the piperazine ring (relative to compound 1)” value at SHP2^WT (1–593) (ratio of IC50) came to 10 fold. Also, the “Exp. ΔG” value is -11.25 kcal/mol with c-Met [2] and -11.01 kcal/mol in the test with SYK [4].
Consider `Nc1cc(N2CCC3(CCCC3N)CC2)cnc1Sc1cccc(Cl)c1Cl` (stereo not shown) [Compound 8, 8-(5-amino-6-((2,3-dichlorophenyl)thio)pyridin-3-yl)-8-azaspiro[4.5]decan-1-amine], for which the FEP with SYK [1] was -10.6 kcal/mol; in the test with c-Met [3], -9.12 kcal/mol. In addition, the “inhibitory activity against SHP-2 (in words)” value on SHP2^WT (1–593) was “potent inhibitory activity”. For the same molecule, the IC50 on SHP2^WT (1–593) worked out at 2.29 ± 0.66 µM. Further, the values for the ΔGexp at SHP2^WT (1–593) and in the test with THR-β were -7.690 kcal/mol and -8.072 kcal/mol, respectively. Besides, the results for the “Exp. ΔG” value in the test on c-Met [2] and in the test with SYK [4] were -10.06 kcal/mol and -9.78 kcal/mol, respectively.
For `O=[N+]([O-])c1cc(Br)cnc1Sc1cccc(Cl)c1Cl` [Compound S4], the “Exp. ΔG” value in the test on SHP-2 is -5.82 kcal/mol.
With `CC1(N)CCN(c2cnc(-c3cccc(Cl)c3Cl)c(N)c2)CC1` [Compound 1, 5-(4-amino-4-methylpiperidin-1-yl)-2-(2,3-dichlorophenyl) pyridin-3-amine], the results for the FEP with SYK [1] and with c-Met [3] were -12.21 kcal/mol and -9.88 kcal/mol, respectively. Also, at SHP2^WT (1–593), the “inhibitory activity against SHP-2 (in words)” value is “potent inhibitory activity”. The IC50 at SHP2^WT (1–593) was 1.49 ± 0.024 µM; at SHP2^PTP (237–529) it was greater than 100 µM. Moreover, the results for the ΔGexp at SHP2^WT (1–593) and in the test with THR-β were -7.943 kcal/mol and -8.186 kcal/mol, respectively. Moreover, the “fold decrease of biochemical inhibition compared to SHP099” value on SHP2^WT (1–593) (ratio of IC50) amounted to 16 fold. Also, the entries for the “Exp. ΔG” value in the test on c-Met [2], in the test with SYK [4] and with HIF-2α were -9.14 kcal/mol, -12.39 kcal/mol and -11.32 kcal/mol, respectively.
Consider `CC1(N)CCN(c2cnc(Sc3cccc(Cl)c3Cl)c(N)c2)CC1` [Compound 7, 5-(4-amino-4-methylpiperidin-1-yl)-2-((2,3-dichlorophenyl)thio)pyridin-3-amine], for which the FEP is -9.01 kcal/mol in the test with TNKS2 [5], -10.29 kcal/mol in the test with SYK [1] and -9.19 kcal/mol in the test on c-Met [3]. The “Exp. ΔG” value in the test on TNKS2 [6] is -8.4 kcal/mol; in the test on c-Met [2], -8.73 kcal/mol; in the test with SYK [4] it was -10.79 kcal/mol. Further, the half-maximal inhibitory concentration (IC50) at SHP2^WT (1–593) stood at 11.3 ± 1.19 µM. For the same molecule, the ΔGexp on SHP2^WT (1–593) was -6.747 kcal/mol; in the test on THR-β, -7.406 kcal/mol.
